Consider one molecule from US20100267803A1, “Regulators Of Fat Metabolism As Anti-Cancer Targets” (The Research Foundation of State University Of New York, priority 2008, published 2010).

Type in all cases: cell-based, human
Experiment [1] relates to BT474, MDA-MB-361, MCF-7 and HMEC cells. Nature of the experiment: Cell counts after PPARγ antagonist treatment. To be noted: 10 and 20 μM for 72 hrs; % of vehicle. As for the experimental part:
(§1) FIG. 3 PPAR. inhibition impacts NR1D1 expression and ERBB2-positive cells viability. (a) Cell counts of BT474, MDA-MB-361, MCF-7 and HMEC cells treated with vehicle, 10 and 20 μM of the PPAR. antagonist GW9662 for 72 hrs. Results represented as % of control (vehicle). (Error bars are s.d from 3 individual experiments; *P>0.2, **P<0.05, ***P<0.002). (b) BT474 cells treated with vehicle or 20 μM of GW9662 for 48 h were immuno-stained for cleaved Caspase-3. (c) Quantification of Caspase-3 signal. (Error bars are s.d from 3 individual experiments; ***P=0.002). (d) aP2 and NR1D1 mRNA levels of BT474 cells treated with vehicle (control) and 20 μM of GW9662 for 48 h, analyzed by qRT-PCRs. (Error bars are s.d from 3 experiments; ***P<0.0006. (e) BMAL1-luc activity of BT474 cells treated with vehicle or 20 μM of GW9662 for 48 h. (Error bars are s.d from 3 individual experiments; **P=0.03). (f) Total ERBB2 western blot of BT474 cells treated with vehicle or 20 μM GW9662 for 72h. GAPDH was used as control.
(§2) Cell viability—apoptosis assays. […] At least 30 fields were imaged per single experiment. […] Immunoblotting. […] PCR reaction was run using standard conditions.

The subject of a further experiment is BMAL1 reporter. Nature of the experiment: BMAL1 luciferase reporter assay in BT474 cells. The note with it: 20 μM GW9662 for 48 h. As to the method:
(§3) FIG. 2 NR1D1 and PBP are necessary for survival of ERBB2-positive cells. (a) PBP and NR1D1 mRNA levels of BT474 cells transfected with luciferase (control), PBP or NR1D1 shRNAs for 48 h, analyzed by qRT-PCRs. (Error bars are s.d from 3 experiments; ***P<0.003, **P=0.01, *P=0.02). (b) BMAL1 luciferase reporter activity of BT474 cells transfected with either empty vector (control), or NR1D1 shRNA for 48 h.
FIG. 3 PPAR. inhibition impacts NR1D1 expression and ERBB2-positive cells viability. (a) Cell counts of BT474, MDA-MB-361, MCF-7 and HMEC cells treated with vehicle, 10 and 20 μM of the PPAR. antagonist GW9662 for 72 hrs. Results represented as % of control (vehicle). (Error bars are s.d from 3 individual experiments; *P>0.2, **P<0.05, ***P<0.002). (b) BT474 cells treated with vehicle or 20 μM of GW9662 for 48 h were immuno-stained for cleaved Caspase-3. (c) Quantification of Caspase-3 signal. […] (d) aP2 and NR1D1 mRNA levels of BT474 cells treated with vehicle (control) and 20 μM of GW9662 for 48 h, analyzed by qRT-PCRs. […]
Reporter assays. […] Cells were lysed 48 h post-transfection and firefly (reporter) and renilla luciferase activities were measured using the Dual-Luciferase Reporter Assay kit (Promega) on a BioTek Synergy HT reader. The ratio of Firefly to Renilla luciferase activity was calculated and presented as percentage of control.
In general terms: Reporter assays use an easily measured gene product as a stand-in for the process of interest.

The next experiment concerns ERBB2. Nature of the experiment: ERBB2 western blot of BT474 cells. As for the experimental part: as §1, §2
In general terms: Immunoblotting shows a protein as a band on a membrane.

Another experiment has as its system ACACA mRNA. Nature of the experiment: qRT-PCR of ACACA mRNA in BT474 cells. The note with it: shRNA or 20 μM GW9662 for 48 h. As to the method: (§4) FIG. 4 NR1D1 and PBP coordinate fatty acid metabolism in breast cancer cells. (a) BT474, MDA-MB-361, MCF-7 and HMEC cells were stained with Oil-Red O lipid and hematoxylin nuclear stains. (b) Fat stores were quantified by BODIPY 493/503 lipid probe staining (Error bars are s.d from 3 individual experiments). (c) FASN, ACLY, ACACA and FADS2 mRNA levels of BT474 cells treated with luciferase (control), PBP or NR1D1 shRNAs, or with vehicle and 20 μM of GW9662 for 48 h, analyzed by qRT-PCRs. (Error bars are s.d from 3 experiments; ***P<0.001, **P=0.005) (d) BT474 cells were transfected with FASN, ACLY and ACACA shRNAs and co-transfected with GFP. Transfected cells were counted at 24 h and 72 h and the 72h-to-24 h ratio for each shRNA was calculated and expressed as % of the control shRNA (luciferase). (Error bars are s.d from 3 individual experiments; **P<0.01, ***P<0.002). (e) BODIPY images and (f) quantification of BT474 cells transfected with luciferase (control), PBP or NR1D1 shRNAs and co-transfected with DsRed (Error bars are s.d from 3 individual experiments; ***P<0.03). Arrows indicate transfected cells.
as §2
(In general: Quantitative PCR measures a nucleic acid by following its amplification.)

In another experiment the test system is aP2 (FABP4) mRNA. Briefly: qRT-PCR of aP2 mRNA in BT474 cells. The note with it: 20 μM GW9662 for 48 h. As for the experimental part:
as §1, §2

A further experiment has as its system NR1D1 mRNA. Briefly: qRT-PCR of NR1D1 mRNA in BT474 cells. To be noted: 20 μM GW9662 for 48 h. As for the experimental part:
as §3
FIG. 3 PPAR. inhibition impacts NR1D1 expression and ERBB2-positive cells viability. (a) Cell counts of BT474, MDA-MB-361, MCF-7 and HMEC cells treated with vehicle, 10 and 20 μM of the PPAR. antagonist GW9662 for 72 hrs. Results represented as % of control (vehicle). (Error bars are s.d from 3 individual experiments; *P>0.2, **P<0.05, ***P<0.002). (b) BT474 cells treated with vehicle or 20 μM of GW9662 for 48 h were immuno-stained for cleaved Caspase-3. (c) Quantification of Caspase-3 signal. (Error bars are s.d from 3 individual experiments; ***P=0.002). (d) aP2 and NR1D1 mRNA levels of BT474 cells treated with vehicle (control) and 20 μM of GW9662 for 48 h, analyzed by qRT-PCRs. […]

Another experiment relates to FASN mRNA. Briefly: qRT-PCR of FASN mRNA in BT474 cells. To be noted: shRNA or 20 μM GW9662 for 48 h. As for the experimental part: as §4, §2
The next experiment has as its system FADS2 mRNA. Nature of the experiment: qRT-PCR of FADS2 mRNA in BT474 cells. To be noted: shRNA or 20 μM GW9662 for 48 h. As for the experimental part:
as §4, §2

The test system of a further experiment is ACLY mRNA. Nature of the experiment: qRT-PCR of ACLY mRNA in BT474 cells. The note with it: shRNA or 20 μM GW9662 for 48 h. As to the method: as §4, §2
The next experiment deals with BT474 cells. Nature of the experiment: Apoptosis by cleaved Caspase-3 or activated Bax immunofluorescence. To be noted: 48 h of shRNA or 20 μM GW9662. As to the method:
Results are shown as percentage of control. (**P=0.03). (c) BT474 cells were transfected with luciferase (control), PBP and NR1D1 shRNAs and co-transfected with GFP. Green cells were counted at intervals and expressed as percentage of control. (Error bars are s.d from 3 individual experiments; *P<0.08, **P<0.03, ***P<0.005). (d) BT474 cells were transfected with luciferase (control), PBP or NR shRNAs for 48 h. Immunofluorescence was performed for cleaved Caspase-3 signal; cell nuclei were stained with Hoechst 33243. (e) Cells from […] were counted for cleaved Caspase-3 signal. (Error bars are s.d from 3 individual experiments; ***P<0.0003). (f) BT474 cells were transfected with luciferase (control) PBP, NR1D1 or PBP and NR1D1 shRNAs together and co-transfected with GFP. Transfected cells were counted at 24 h and 72 h and the 72 h-to-24 h ratio for each shRNA was calculated and expressed as % of the control shRNA (luciferase). (Error bars are s.d from 3 individual experiments; **P=0.01, ***P<0.002). (g) Cells from (f) were counted for cleaved Caspase-3 signal. (Error bars are s.d from 3 individual experiments; ***P<0.0001). (h) ERBB2 mRNA levels of BT474 cells transfected with luciferase (control), PBP or NR1D1 shRNAs for 48 h, analyzed by qRT-PCRs. (Error bars are s.d from 3 individual experiments; ***P=0.0001).
FIG. 3 PPAR. inhibition impacts NR1D1 expression and ERBB2-positive cells viability. (a) Cell counts of BT474, MDA-MB-361, MCF-7 and HMEC cells treated with vehicle, 10 and 20 μM of the PPAR. antagonist GW9662 for 72 hrs. Results represented as % of control (vehicle). (Error bars are s.d from 3 individual experiments; *P>0.2, **P<0.05, ***P<0.002). […] (c) Quantification of Caspase-3 signal. […] (d) aP2 and NR1D1 mRNA levels of BT474 cells treated with vehicle (control) and 20 μM of GW9662 for 48 h, analyzed by qRT-PCRs. […]
FIG. 5. (a) MDH1 and ME1 mRNA levels of BT474 cells treated with luciferase (control), PBP or NR1D1 shRNAs for 48 h, analyzed by qRT-PCRs. […] (d) Quantification of cleaved Caspase-3 signal from cells in (c). […]

Molecules are shown by their SMILES.

Regarding `O=C(Nc1ccccc1)c1cc([N+](=O)[O-])ccc1Cl` [GW9662, reference compound], in [1], the “sensitivity of cells to drug treatment (cell counts)” value is “ERBB2-positive cells were more sensitive to drug treatment than MCF-7 and HMEC cells”. Further, the BMAL1 reporter activity result in the experiment on BMAL1 reporter is “increased BMAL1 reporter activity”. Moreover, the ERBB2 protein levels entry in the experiment with ERBB2 (20 μM GW9662 for 72h) is reported as “Neither ERBB2 protein levels (FIG. 3f), nor ERBB2 phosphorylation (FIG. S3d) were significantly affected”. Also, the ERBB2 phosphorylation result in the experiment on ERBB2 (GW9662 treatment) was “Neither ERBB2 protein levels (FIG. 3f), nor ERBB2 phosphorylation (FIG. S3d) were significantly affected”. For the same molecule, the ACACA transcript level entry with ACACA mRNA is “reduced”. For the same molecule, the “mRNA levels of aP2” value in the experiment on aP2 (FABP4) mRNA was “decreased mRNA levels of aP2”. The NR1D1 message levels result with NR1D1 mRNA is reported as “dramatically decreased”. For the same molecule, in the experiment on FASN mRNA, the FASN transcript level result is given as “reduced”. Further, in the experiment with FADS2 mRNA, the FADS2 transcript levels entry is recorded as “downregulated”. For the same molecule, the ACLY transcript level result with ACLY mRNA is on record as “reduced”. For the same molecule, the apoptosis entry in the experiment on BT474 cells is reported as “apoptosis of BT474 cells”.
